#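 Five concentrations, 48 hours, 96-well plates. The concentration for 50% growth inhibition is given as GI50.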 Calls of active or inactive are those of the source. Cut-off read from the data, not from the text of the source: active = GI50 up to about 1.1 µM and inactive = higher.
# Key:
# Experiment in all cases: growth of human tumour cells (NCI), 48 h
# SK-MEL-2 = system: SK-MEL-2
# HOP-92 = system: HOP-92
# SN12C = system: SN12C
# KM12 = system: KM12
# M19-MEL = system: M19-MEL
# UACC-257 = system: UACC-257
# EKVX = system: EKVX
# SK-OV-3 = system: SK-OV-3
# KM-20L2 = system: KM-20L2
# HOP-18 = system: HOP-18
# SNB-78 = system: SNB-78
# HT-29 = system: HT-29
# SK-MEL-28 = system: SK-MEL-28
# LXFL 529 = system: LXFL 529
# SF-539 = system: SF-539
# A498 = system: A498
# NCI-H460 = system: NCI-H460
# OVCAR-4 = system: OVCAR-4
# U-251 = system: U-251
# DMS-114 = system: DMS-114
# ACHN = system: ACHN
# COLO 205 = system: COLO 205
# NCI-H226 = system: NCI-H226
# RPMI-8226 = system: RPMI-8226
# TK-10 = system: TK-10
# SNB-19 = system: SNB-19
# HL-60 = system: HL-60
# LOX IMVI = system: LOX IMVI
# Malme-3M = system: Malme-3M
# HCC 2998 = system: HCC 2998
# MOLT-4 = system: MOLT-4
# SF-295 = system: SF-295
# K562 = system: K562
# HCT-15 = system: HCT-15
# RXF 393 = system: RXF 393
# NCI-H23 = system: NCI-H23
# UACC-62 = system: UACC-62
# DMS-273 = system: DMS-273
# 786-0 = system: 786-0
# NCI-H522 = system: NCI-H522
# CCRF-CEM = system: CCRF-CEM
# IGROV-1 = system: IGROV-1
# UO-31 = system: UO-31
# DLD-1 = system: DLD-1
# SNB-75 = system: SNB-75
# OVCAR-8 = system: OVCAR-8
# SF-268 = system: SF-268
# SR = system: SR
# M14 = system: M14
# HOP-62 = system: HOP-62
# XF498 = system: XF498
# HCT-116 = system: HCT-116
# SW-620 = system: SW-620
# A549 = system: A549
# OVCAR-5 = system: OVCAR-5
# CAKI-1 = system: CAKI-1
# SK-MEL-5 = system: SK-MEL-5
# OVCAR-3 = system: OVCAR-3
smiles,measurement,setting,value
C=C(C)C1C/C=C(/C)CCCC2(CCC3=C(CC(C(=C)C)C/C=C(/C)CCC3)O2)C(=O)C1 (stereo unspecified),GI50,SK-MEL-2,> 100 µM (inactive)
same,GI50,HOP-92,> 100 µM (inactive)
same,GI50,SN12C,> 100 µM (inactive)
same,GI50,KM12,> 100 µM (inactive)
same,GI50,M19-MEL,> 100 µM (inactive)
same,GI50,UACC-257,> 100 µM (inactive)
same,GI50,EKVX,> 100 µM (inactive)
same,GI50,SK-OV-3,> 100 µM (inactive)
same,GI50,KM-20L2,> 100 µM (inactive)
same,GI50,HOP-18,> 100 µM (inactive)
same,GI50,SNB-78,> 100 µM (inactive)
same,GI50,HT-29,> 100 µM (inactive)
same,GI50,SK-MEL-28,> 100 µM (inactive)
same,GI50,LXFL 529,> 100 µM (inactive)
same,GI50,SF-539,> 100 µM (inactive)
same,GI50,A498,> 100 µM (inactive)
same,GI50,NCI-H460,> 100 µM (inactive)
same,GI50,OVCAR-4,> 100 µM (inactive)
same,GI50,U-251,> 100 µM (inactive)
same,GI50,DMS-114,> 100 µM (inactive)
same,GI50,ACHN,> 100 µM (inactive)
same,GI50,COLO 205,> 100 µM (inactive)
same,GI50,NCI-H226,> 100 µM (inactive)
same,GI50,RPMI-8226,> 100 µM (inactive)
same,GI50,TK-10,> 100 µM (inactive)
same,GI50,SNB-19,> 100 µM (inactive)
same,GI50,HL-60,> 100 µM (inactive)
same,GI50,LOX IMVI,> 100 µM (inactive)
same,GI50,Malme-3M,> 100 µM (inactive)
same,GI50,HCC 2998,> 100 µM (inactive)
same,GI50,MOLT-4,> 100 µM (inactive)
same,GI50,SF-295,> 100 µM (inactive)
same,GI50,K562,> 100 µM (inactive)
same,GI50,HCT-15,> 100 µM
same,GI50,RXF 393,> 100 µM (inactive)
same,GI50,NCI-H23,> 100 µM (inactive)
same,GI50,UACC-62,> 100 µM (inactive)
same,GI50,DMS-273,> 100 µM (inactive)
same,GI50,786-0,> 100 µM (inactive)
same,GI50,NCI-H522,> 100 µM (inactive)
same,GI50,CCRF-CEM,> 100 µM (inactive)
same,GI50,IGROV-1,> 100 µM (inactive)
same,GI50,UO-31,> 100 µM (inactive)
same,GI50,DLD-1,> 100 µM (inactive)
same,GI50,SNB-75,> 100 µM (inactive)
same,GI50,OVCAR-8,> 100 µM (inactive)
same,GI50,SF-268,> 100 µM (inactive)
same,GI50,SR,> 100 µM (inactive)
same,GI50,M14,> 100 µM (inactive)
same,GI50,HOP-62,> 100 µM (inactive)
same,GI50,XF498,> 100 µM (inactive)
same,GI50,HCT-116,54.7 µM (inactive)
same,GI50,SW-620,> 100 µM (inactive)
same,GI50,A549,> 100 µM (inactive)
CC1NOC(=O)C1/N=N/c1cccc(Cl)c1 (stereo unspecified),GI50,SK-MEL-2,16.5 µM (inactive)
same,GI50,HOP-92,26.4 µM (inactive)
same,GI50,SN12C,21.7 µM (inactive)
same,GI50,KM12,40.7 µM (inactive)
same,GI50,M19-MEL,30.3 µM (inactive)
same,GI50,UACC-257,29 µM (inactive)
same,GI50,EKVX,37.5 µM (inactive)
same,GI50,OVCAR-5,47.5 µM (inactive)
same,GI50,SK-OV-3,28.8 µM (inactive)
same,GI50,KM-20L2,35.6 µM (inactive)
same,GI50,HOP-18,26.1 µM (inactive)
same,GI50,SNB-78,36.6 µM (inactive)
same,GI50,CAKI-1,38.6 µM (inactive)
same,GI50,HT-29,27.4 µM (inactive)
same,GI50,SK-MEL-28,43.9 µM (inactive)
same,GI50,LXFL 529,27.9 µM (inactive)
same,GI50,SF-539,34.3 µM (inactive)
same,GI50,A498,17.3 µM (inactive)
same,GI50,NCI-H460,31.2 µM (inactive)
same,GI50,OVCAR-4,32.9 µM (inactive)
same,GI50,U-251,25.2 µM (inactive)
same,GI50,DMS-114,22.4 µM (inactive)
same,GI50,ACHN,40.9 µM (inactive)
same,GI50,COLO 205,20.5 µM (inactive)
same,GI50,NCI-H226,32.3 µM (inactive)
same,GI50,SK-MEL-5,19.9 µM (inactive)
same,GI50,TK-10,42.8 µM (inactive)
same,GI50,SNB-19,37.7 µM (inactive)
same,GI50,HL-60,18.4 µM (inactive)
same,GI50,LOX IMVI,28.8 µM (inactive)
same,GI50,Malme-3M,29.7 µM (inactive)
same,GI50,HCC 2998,> 100 µM (inactive)
same,GI50,MOLT-4,24.5 µM (inactive)
same,GI50,SF-295,34 µM (inactive)
same,GI50,K562,25.6 µM (inactive)
same,GI50,HCT-15,17.7 µM
same,GI50,RXF 393,22.8 µM (inactive)
same,GI50,NCI-H23,99.5 µM (inactive)
same,GI50,UACC-62,34.6 µM (inactive)
same,GI50,DMS-273,48.1 µM (inactive)
same,GI50,786-0,30.2 µM (inactive)
same,GI50,NCI-H522,23.5 µM (inactive)
same,GI50,CCRF-CEM,21.4 µM (inactive)
same,GI50,IGROV-1,40.8 µM (inactive)
same,GI50,UO-31,35.6 µM (inactive)
same,GI50,DLD-1,34.6 µM (inactive)
same,GI50,OVCAR-3,22.5 µM (inactive)
same,GI50,SNB-75,36.1 µM (inactive)
same,GI50,OVCAR-8,44.8 µM (inactive)
same,GI50,SF-268,23.1 µM (inactive)
same,GI50,SR,21.2 µM (inactive)
same,GI50,M14,62.2 µM (inactive)
same,GI50,HOP-62,51.3 µM (inactive)
same,GI50,XF498,22.3 µM (inactive)
same,GI50,HCT-116,31.7 µM (inactive)
same,GI50,SW-620,10 µM (inactive)
same,GI50,A549,33.2 µM (inactive)
CN1N=C2c3ccccc3OC(c3ccccc3)[C@H]2C1c1ccccc1 (stereo partly specified),GI50,SK-MEL-2,> 100 µM (inactive)
same,GI50,HOP-92,32.7 µM (inactive)
same,GI50,SN12C,> 100 µM (inactive)
same,GI50,KM12,> 100 µM (inactive)
same,GI50,M19-MEL,> 100 µM (inactive)
same,GI50,UACC-257,81.1 µM (inactive)
same,GI50,EKVX,> 100 µM (inactive)
same,GI50,OVCAR-5,> 100 µM (inactive)
same,GI50,SK-OV-3,> 100 µM (inactive)
same,GI50,KM-20L2,51.2 µM (inactive)
same,GI50,HOP-18,> 100 µM (inactive)
same,GI50,SNB-78,26.4 µM (inactive)
same,GI50,HT-29,42.1 µM (inactive)
same,GI50,SK-MEL-28,> 100 µM (inactive)
same,GI50,LXFL 529,37.6 µM (inactive)
same,GI50,SF-539,> 100 µM (inactive)
same,GI50,A498,> 100 µM (inactive)
same,GI50,NCI-H460,97.1 µM (inactive)
same,GI50,OVCAR-4,85.1 µM (inactive)
same,GI50,U-251,> 100 µM (inactive)
same,GI50,DMS-114,44.1 µM (inactive)
same,GI50,ACHN,> 100 µM (inactive)
same,GI50,COLO 205,> 100 µM (inactive)
same,GI50,NCI-H226,> 100 µM (inactive)
same,GI50,RPMI-8226,89.7 µM (inactive)
same,GI50,TK-10,> 100 µM (inactive)
same,GI50,SNB-19,> 100 µM (inactive)
same,GI50,HL-60,37.3 µM (inactive)
same,GI50,LOX IMVI,> 100 µM (inactive)
same,GI50,Malme-3M,22.2 µM (inactive)
same,GI50,HCC 2998,56.1 µM (inactive)
same,GI50,MOLT-4,35.2 µM (inactive)
same,GI50,SF-295,90.4 µM (inactive)
same,GI50,K562,88.1 µM (inactive)
same,GI50,HCT-15,75 µM
same,GI50,RXF 393,28.2 µM (inactive)
same,GI50,NCI-H23,79.4 µM (inactive)
same,GI50,UACC-62,> 100 µM (inactive)
same,GI50,DMS-273,> 100 µM (inactive)
same,GI50,786-0,> 100 µM (inactive)
same,GI50,NCI-H522,22.5 µM (inactive)
same,GI50,CCRF-CEM,38.4 µM (inactive)
same,GI50,IGROV-1,90.8 µM (inactive)
same,GI50,UO-31,61.1 µM (inactive)
same,GI50,DLD-1,95.3 µM (inactive)
same,GI50,OVCAR-3,> 100 µM (inactive)
same,GI50,OVCAR-8,> 100 µM (inactive)
same,GI50,SF-268,> 100 µM (inactive)
same,GI50,SR,> 100 µM (inactive)
same,GI50,M14,> 100 µM (inactive)
same,GI50,HOP-62,95.5 µM (inactive)
same,GI50,XF498,> 100 µM (inactive)
same,GI50,HCT-116,29.7 µM (inactive)
same,GI50,SW-620,> 100 µM (inactive)
same,GI50,A549,72.9 µM (inactive)

# — ChEMBL document CHEMBL1201862, “PubChem BioAssay data set” (2004)
